Data taken from PubChem BioAssay AID1963847 (Molecular Pharmacology Branch, DTP, NCI, 2024).

System: 415267-285-R-J2-PDC complex spheroid viability
Experiment: Anticancer human tumor 415267-285-R-J2-PDC patient-derived breast carcinoma cell line growth inhibition [POLQ]
Details: for IC50: curve of first compound; for viability, T/C: stronger effect = lower value
In short: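 Growth inhibition in 3D: complex spheroids (tumor PDC, HUVEC, MSC) treated with POLQ inhibitor combinations; where Cmax unknown, highest tested concentration 10 microM, except SN-38 at 1 microM.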

[1] = second compound 0.0316 µM, first compound 0.0316 µM
[2] = second compound 0.0316 µM, first compound 0.1 µM
[3] = second compound 0.0316 µM, first compound 0.316 µM
[4] = second compound 0.0316 µM, first compound 1 µM
[5] = second compound 0.0316 µM, first compound 3.16 µM
[6] = second compound 0.0316 µM, first compound 10 µM
[7] = second compound 0.1 µM, first compound 0.0316 µM
[8] = second compound 0.1 µM, first compound 0.1 µM
[9] = second compound 0.1 µM, first compound 0.316 µM
[10] = second compound 0.1 µM, first compound 1 µM
[11] = second compound 0.1 µM, first compound 3.16 µM
[12] = second compound 0.1 µM, first compound 10 µM
[13] = second compound 0.316 µM, first compound 0.0316 µM
[14] = second compound 0.316 µM, first compound 0.1 µM
[15] = second compound 0.316 µM, first compound 0.316 µM
[16] = second compound 0.316 µM, first compound 1 µM
[17] = second compound 0.316 µM, first compound 3.16 µM
[18] = second compound 0.316 µM, first compound 10 µM
[19] = second compound 1 µM, first compound 0.0316 µM
[20] = second compound 1 µM, first compound 0.1 µM
[21] = second compound 1 µM, first compound 0.316 µM
[22] = second compound 1 µM, first compound 1 µM
[23] = second compound 1 µM, first compound 3.16 µM
[24] = second compound 1 µM, first compound 10 µM
[25] = second compound 3.16 µM, first compound 0.0316 µM
[26] = second compound 3.16 µM, first compound 0.1 µM
[27] = second compound 3.16 µM, first compound 0.316 µM
[28] = second compound 3.16 µM, first compound 1 µM
[29] = second compound 3.16 µM, first compound 3.16 µM
[30] = second compound 3.16 µM, first compound 10 µM
[31] = second compound 10 µM, first compound 0.0316 µM
[32] = second compound 10 µM, first compound 0.1 µM
[33] = second compound 10 µM, first compound 0.316 µM
[34] = second compound 10 µM, first compound 1 µM
[35] = second compound 10 µM, first compound 3.16 µM
[36] = second compound 10 µM, first compound 10 µM
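Also: spheroids exposed to compounds for one week before readout.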
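For viability, T/C in this document: luminescence used as stand-in measure of viable cells; 100% = DMSO vehicle control viability.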

In the case of C#Cc1c(F)ccc2cc(O)cc(-c3ncc4c(N5CC6CCC(C5)N6)nc(OCC56CCCN5CC(F)C6)nc4c3F)c12 (centres undefined) + COC1C(OC(N)=O)C(O)C(Oc2ccc3c(O)c(NC(=O)c4ccc(O)c(CC=C(C)C)c4)c(=O)oc3c2C)OC1(C)C, the IC50 (second compound 0.0316 µM) is reported as over 10 µM, the IC50 (second compound 0.1 µM) is reported as over 10 µM and the IC50 (second compound 0.316 µM) is reported as over 10 µM. For the same compound, the IC50 (second compound 1 µM) was over 10 µM, the IC50 (second compound 3.16 µM) was over 10 µM and the IC50 (second compound 10 µM) was over 10 µM. The viability, T/C [1] was 101%, the viability, T/C [2] was 95.3% and the viability, T/C [3] was 103%. It also gave a viability, T/C [4] of 95.4%, a viability, T/C [5] of 97.7% and a viability, T/C [6] of 101%. It also gave a viability, T/C [7] of 97.6%, a viability, T/C [8] of 91.9% and a viability, T/C [9] of 102%. The viability, T/C [10] was 103%, the viability, T/C [11] was 101% and the viability, T/C [12] was 110%. The viability, T/C [13] was 97.7%, the viability, T/C [14] was 103% and the viability, T/C [15] was 104%. It also gave a viability, T/C [16] of 95.3%, a viability, T/C [17] of 99.3% and a viability, T/C [18] of 100%. The viability, T/C [19] was 84.9%, the viability, T/C [20] was 92% and the viability, T/C [21] was 91.2%. The viability, T/C [22] was 104%, the viability, T/C [23] was 102% and the viability, T/C [24] was 96.7%. It also gave a viability, T/C [25] of 100%, a viability, T/C [26] of 111% and a viability, T/C [27] of 92.1%. For the same compound, the viability, T/C [28] was 111%, the viability, T/C [29] was 94.5% and the viability, T/C [30] was 91.4%. It also gave a viability, T/C [31] of 95.3%, a viability, T/C [32] of 105% and a viability, T/C [33] of 98.4%. The viability, T/C [34] was 98%, the viability, T/C [35] was 91.8% and the viability, T/C [36] was 103%.

Work on CNCc1ccc(-c2[nH]c3cc(F)cc4c3c2CCNC4=O)cc1 + Cc1cccc(N(C)C(=O)C2C(O)CCN2c2nc(C)cc(C(F)(F)F)c2C#N)c1 yielded an IC50 (second compound 0.0316 µM) of over 10 µM, an IC50 (second compound 0.1 µM) of over 10 µM and an IC50 (second compound 0.316 µM) of over 10 µM. For the same compound, the IC50 (second compound 1 µM) was over 10 µM, the IC50 (second compound 3.16 µM) was over 10 µM and the IC50 (second compound 10 µM) was over 10 µM. The viability, T/C [1] was 94.8%, the viability, T/C [2] was 97.2% and the viability, T/C [3] was 106%. It also gave a viability, T/C [4] of 116%, a viability, T/C [5] of 94.5% and a viability, T/C [6] of 110%. For the same compound, the viability, T/C [7] was 99.8%, the viability, T/C [8] was 86.7% and the viability, T/C [9] was 102%. It also gave a viability, T/C [10] of 96.3%, a viability, T/C [11] of 105% and a viability, T/C [12] of 105%. The viability, T/C [13] was 97.5%, the viability, T/C [14] was 103% and the viability, T/C [15] was 101%. It also gave a viability, T/C [16] of 101%, a viability, T/C [17] of 102% and a viability, T/C [18] of 99.6%. The viability, T/C [19] was 97.8%, the viability, T/C [20] was 96.3% and the viability, T/C [21] was 93.7%. The viability, T/C [22] was 100%, the viability, T/C [23] was 104% and the viability, T/C [24] was 84.3%. It also gave a viability, T/C [25] of 94%, a viability, T/C [26] of 100% and a viability, T/C [27] of 100%. For the same compound, the viability, T/C [28] was 98%, the viability, T/C [29] was 97.8% and the viability, T/C [30] was 94.6%. It also gave a viability, T/C [31] of 98.4%, a viability, T/C [32] of 90.2% and a viability, T/C [33] of 96.3%. For the same compound, the viability, T/C [34] was 95.1%, the viability, T/C [35] was 96.9% and the viability, T/C [36] was 88.9%.
